The record followed here is patent publication US8785452B2, “Anti-infective compounds” (priority 2008, dated 2014).

The first assay relates to M. tuberculosis H37Rv-GFP. Description: microbe, parasite or virus in culture. The class given is cell-based, Mycobacterium tuberculosis. The note with it: Mycobacterium tuberculosis, H37RV, Macrophage, read-out: Primary QIM % Inhibition.
For `COc1ccccc1OCCNC(=O)c1cc([N+](=O)[O-])cc([N+](=O)[O-])c1` [IPK 000 027 74], the inhibition at 20 µM worked out at 87.2%.

The same assay, now with this note: Mycobacterium tuberculosis, H37RV, Macrophage, read-out: QIM Confirm % Inhibition 0.2 uM.
In the case of `COc1ccccc1OCCNC(=O)c1cc([N+](=O)[O-])cc([N+](=O)[O-])c1` [IPK 000 027 74], the inhibition at 0.2 µM is -2.7%.

Staying with this assay, now noted: Mycobacterium tuberculosis, H37RV, Macrophage, read-out: QIM Confirm % Inhibition 2 uM.
With `COc1ccccc1OCCNC(=O)c1cc([N+](=O)[O-])cc([N+](=O)[O-])c1` [IPK 000 027 74], the inhibition at 2 µM came to 83.3%.

Still in this assay, the particulars now being: Mycobacterium tuberculosis, H37RV, Macrophage, read-out: QIM Confirm % Inhibition 20 uM.
As for `COc1ccccc1OCCNC(=O)c1cc([N+](=O)[O-])cc([N+](=O)[O-])c1` [IPK 000 027 74], the inhibition at 20 µM came out at 96.9%.

The assay is the same for the next values; noted with them: Mycobacterium tuberculosis, H37RV, Macrophage; confirmation, 0.2 uM, intracellular; read-out: QIM Confirm % Inhibition 0.2 uM.
Consider `CCc1nnc(NS(=O)(=O)c2ccc(N)cc2)s1` [IPK 000 035 58], for which the inhibition at 0.2 µM turned out to be 5.1%.
Still for that read-out and setting: with `Fc1ccc(Nc2nc3nonc3nc2Nc2ccc(F)cc2)cc1` [IPK 000 003 91] the figure was 2.9%.
For the molecule `O=C(N/N=C/c1cccc(Br)c1)C1C2CC/C=C\CCC21` (centres unmarked) [IPK 000 010 06], the inhibition at 0.2 µM was 17.1%.

The same assay, now with this note: Mycobacterium tuberculosis, H37RV, Macrophage; confirmation, 2 uM, intracellular; read-out: QIM Confirm % Inhibition 2 uM.
With `CCc1nnc(NS(=O)(=O)c2ccc(N)cc2)s1` [IPK 000 035 58], the inhibition at 2 µM amounted to 34.4%.
As to `Fc1ccc(Nc2nc3nonc3nc2Nc2ccc(F)cc2)cc1` [IPK 000 003 91], the inhibition at 2 µM was determined as 36.8%.
For `O=C(N/N=C/c1cccc(Br)c1)C1C2CC/C=C\CCC21` (centres unmarked) [IPK 000 010 06], the inhibition at 2 µM came to 18%.

The same assay, now with this note: Mycobacterium tuberculosis, H37RV, Macrophage; confirmation, 20 uM; read-out: QIM Confirm % Inhibition 20 uM.
Regarding `CCc1nnc(NS(=O)(=O)c2ccc(N)cc2)s1` [IPK 000 035 58], the inhibition at 20 µM amounted to 2.8%.
Same read-out and setting: with `Fc1ccc(Nc2nc3nonc3nc2Nc2ccc(F)cc2)cc1` [IPK 000 003 91] the figure was 76.4%.
Consider `O=C(N/N=C/c1cccc(Br)c1)C1C2CC/C=C\CCC21` (centres unmarked) [IPK 000 010 06], for which the inhibition at 20 µM is 81.8%.

The same assay, now with this note: Mycobacterium tuberculosis, H37RV, Macrophage; primary screen, 20 μM; read-out: Primary QIM % Inhibition.
For the molecule `CCc1nnc(NS(=O)(=O)c2ccc(N)cc2)s1` [IPK 000 035 58], the inhibition at 20 µM is -51.3%.
With `Fc1ccc(Nc2nc3nonc3nc2Nc2ccc(F)cc2)cc1` [IPK 000 003 91], the inhibition at 20 µM came out at 31.6%.
On the same count and under the same terms, then `O=C(N/N=C/c1cccc(Br)c1)C1C2CC/C=C\CCC21` (centres unmarked) [IPK 000 010 06], with 81%.

In a further assay the test system is M. tuberculosis H37Rv-GFP. Description: microbe, parasite or virus in culture. The class given is cell-based. Conditions: Mycobacterium tuberculosis, read-out: QUM Confirm % Inhibition 0.2 uM.
Turning to `CCc1nnc(NS(=O)(=O)c2ccc(N)cc2)s1` [IPK 000 035 58], the inhibition at 0.2 µM is 45.1%.
In the case of `Fc1ccc(Nc2nc3nonc3nc2Nc2ccc(F)cc2)cc1` [IPK 000 003 91], the inhibition at 0.2 µM is 46.6%.
With `O=C(N/N=C/c1cccc(Br)c1)C1C2CC/C=C\CCC21` (centres unmarked) [IPK 000 010 06], the inhibition at 0.2 µM stood at 39.5%.
Take `COc1ccccc1OCCNC(=O)c1cc([N+](=O)[O-])cc([N+](=O)[O-])c1` [IPK 000 027 74]: the inhibition at 0.2 µM stood at 43.5%.

The same assay, now with this note: Mycobacterium tuberculosis, read-out: QUM Confirm % Inhibition 2 uM.
Take `CCc1nnc(NS(=O)(=O)c2ccc(N)cc2)s1` [IPK 000 035 58]: the inhibition at 2 µM amounted to 46.4%.
On to `Fc1ccc(Nc2nc3nonc3nc2Nc2ccc(F)cc2)cc1` [IPK 000 003 91], for which the inhibition at 2 µM was 41.4%.
Turning to `O=C(N/N=C/c1cccc(Br)c1)C1C2CC/C=C\CCC21` (centres unmarked) [IPK 000 010 06], the inhibition at 2 µM was determined as 43.1%.
As to `COc1ccccc1OCCNC(=O)c1cc([N+](=O)[O-])cc([N+](=O)[O-])c1` [IPK 000 027 74], the inhibition at 2 µM came out at 97.5%.

The assay is the same for the next values; noted with them: Mycobacterium tuberculosis, read-out: QUM Confirm % Inhibition 20 uM.
For `CCc1nnc(NS(=O)(=O)c2ccc(N)cc2)s1` [IPK 000 035 58], the inhibition at 20 µM is 65.3%.
Turning to `Fc1ccc(Nc2nc3nonc3nc2Nc2ccc(F)cc2)cc1` [IPK 000 003 91], the inhibition at 20 µM is 76.7%.
Still for that read-out and setting: with `O=C(N/N=C/c1cccc(Br)c1)C1C2CC/C=C\CCC21` (centres unmarked) [IPK 000 010 06] the figure was 39.2%; with `COc1ccccc1OCCNC(=O)c1cc([N+](=O)[O-])cc([N+](=O)[O-])c1` [IPK 000 027 74], 100%.

For a further assay, the system named is Raw264.7 cells. The assay is described as follows: Cell number (CellNb) from image analysis of the phenotypic cell-based assay.
Conditions: not given
On to `COc1ccccc1OCCNC(=O)c1cc([N+](=O)[O-])cc([N+](=O)[O-])c1` [IPK 000 027 74], for which the “Primary QIM CellNb” value is 366.0, the “QIM Confirm CellNb 0.2 uM” value is 268.5, the “QIM Confirm CellNb 2 uM” value was 478.8 and the “QIM Confirm CellNb 20 uM” value is reported as 435.8.

Still in this assay, the particulars now being: confirmation, 0.2 uM.
`CCc1nnc(NS(=O)(=O)c2ccc(N)cc2)s1` [IPK 000 035 58]: the “QIM Confirm CellNb 0.2 uM” value came to 292.3.
On the same count and under the same terms, then `Fc1ccc(Nc2nc3nonc3nc2Nc2ccc(F)cc2)cc1` [IPK 000 003 91], with 220.9; and `O=C(N/N=C/c1cccc(Br)c1)C1C2CC/C=C\CCC21` (centres unmarked) [IPK 000 010 06], with 412.0.

The same assay, now with this note: confirmation, 2 uM.
Turning to `CCc1nnc(NS(=O)(=O)c2ccc(N)cc2)s1` [IPK 000 035 58], the “QIM Confirm CellNb 2 uM” value came to 330.0.
Same read-out and setting: with `Fc1ccc(Nc2nc3nonc3nc2Nc2ccc(F)cc2)cc1` [IPK 000 003 91] the figure was 148.9; with `O=C(N/N=C/c1cccc(Br)c1)C1C2CC/C=C\CCC21` (centres unmarked) [IPK 000 010 06], 344.9.

Still in this assay, the particulars now being: confirmation, 20 uM.
Regarding `CCc1nnc(NS(=O)(=O)c2ccc(N)cc2)s1` [IPK 000 035 58], the “QIM Confirm CellNb 20 uM” value is listed as 279.9.
On the same count and under the same terms, with `Fc1ccc(Nc2nc3nonc3nc2Nc2ccc(F)cc2)cc1` [IPK 000 003 91] the figure was 128.8; with `O=C(N/N=C/c1cccc(Br)c1)C1C2CC/C=C\CCC21` (centres unmarked) [IPK 000 010 06], 380.9.

Staying with this assay, now noted: primary screen, 20 μM.
With `CCc1nnc(NS(=O)(=O)c2ccc(N)cc2)s1` [IPK 000 035 58], the “Primary QIM CellNb” value is 104.0.
For the molecule `Fc1ccc(Nc2nc3nonc3nc2Nc2ccc(F)cc2)cc1` [IPK 000 003 91], the “Primary QIM CellNb” value worked out at 63.0.
Same read-out and setting: with `O=C(N/N=C/c1cccc(Br)c1)C1C2CC/C=C\CCC21` (centres unmarked) [IPK 000 010 06] the figure was 322.8.
